# Measurements from patent publication US10092551B2, “Spiro-thiazolones” (Hoffmann-La Roche Inc., priority 2014, dated 2018).
# Target: human V1a receptor (Homo sapiens (Human), UniProt P37288)
# Assay: human V1a receptor binding studies (3H-Vasopressin, SPA beads)
# Settings: membranes of HEK293 cells transiently transfected with human V1a receptor, Ki by Cheng-Prussoff
# How it was run: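 Membranes from HEK293 cells transiently expressing cloned human V1a receptor, bound on yttrium silicate SPA beads with 4 nM 3H-vasopressin (added stock) and serially diluted compound, 1 h at room temperature. Non-specific binding defined with cold vasopressin; IC50 by non-linear regression, Ki via Cheng-Prusoff.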
# Sequence of human V1a receptor (P37288 whole entry): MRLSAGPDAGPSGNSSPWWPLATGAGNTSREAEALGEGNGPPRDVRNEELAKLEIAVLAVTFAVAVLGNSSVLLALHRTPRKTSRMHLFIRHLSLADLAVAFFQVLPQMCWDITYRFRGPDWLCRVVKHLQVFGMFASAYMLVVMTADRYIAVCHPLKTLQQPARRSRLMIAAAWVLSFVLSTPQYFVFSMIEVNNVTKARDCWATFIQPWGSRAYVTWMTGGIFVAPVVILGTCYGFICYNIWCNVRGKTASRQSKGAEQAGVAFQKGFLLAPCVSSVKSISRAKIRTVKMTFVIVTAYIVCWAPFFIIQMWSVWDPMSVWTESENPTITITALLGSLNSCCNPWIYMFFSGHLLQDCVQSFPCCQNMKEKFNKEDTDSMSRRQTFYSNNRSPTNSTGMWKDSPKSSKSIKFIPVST
row,SMILES,pKi hV1a
1,"C/C(=C1\SC(N2CCC3(CC2)OCc2ccccc23)=NC1=O)c1ccc(Cl)cc1 [Example 27, (5E)-5-[1-(4-chlorophenyl)ethylidene]-2-(1′H,3H-spiro[2-benzofuran-1,4′-piperidin]-1′-yl)-1,3-thiazol-4(5H)-one]",8.3
2,"O=C1N=C(N2CCC3(CC2)OCc2ccccc23)S/C1=C1/CCCOC1 [Example 76, (5E/Z)-5-(dihydro-2H-pyran-3(4H)-ylidene)-2-(1′H,3H-spiro[2-benzofuran-1,4′-piperidin]-1′-yl)-1,3-thiazol-4(5H)-one]",7.8
3,"C/C(=C1/SC(N2CCC3(CC2)OC(=O)c2ccccc23)=NC1=O)c1ccc(Cl)cc1 [Example 3, 1′-{(5E/Z)-5-[1-(4-chlorophenyl)ethylidene]-4-oxo-4,5-dihydro-1,3-thiazol-2-yl}-3H-spiro[2-benzofuran-1,4′-piperidin]-3-one]",9.0
4,[2H]C([2H])([2H])/C(=C1\SC(N2CCC3(CC2)OCc2ccccc23)=NC1=O)c1ccc(Cl)nc1 [Example 172],8.9
5,"CC(C)(C)[Si](C)(C)OC/C(=C1/SC(N2CCC3(CC2)OCc2ccccc23)=NC1=O)c1ccccc1 [Example 123, (5E)-5-(2-{[tert-butyl(dimethyl)silyl]oxy}-1-phenylethylidene)-2-(1′H,3H-spiro[2-benzofuran-1,4′-piperidin]-1′-yl)-1,3-thiazol-4(5H)-one]",8.5
6,"O=C1N=C(N2CCC3(CC2)OCc2ccccc23)S/C1=C\c1ccccc1 [Example 9, (5Z)-5-benzylidene-2-(1′H,3H-spiro[2-benzofuran-1,4′-piperidin]-1′-yl)-1,3-thiazol-4(5H)-one]",8.4
7,"C/C(=C1/SC(N2CCC3(CC2)OCc2ncccc23)=NC1=O)c1ccc(Cl)cc1 [Example 6, (5E/Z)-5-[1-(4-chlorophenyl)ethylidene]-2-(1′H,7H-spiro[furo[3,4-b]pyridine-5,4′-piperidin]-1′-yl)-1,3-thiazol-4(5H)-one]",9.3
8,"CC/C(=C1/SC(N2CCC3(CC2)OCc2ccccc23)=NC1=O)c1ccc(Cl)cc1 [Example 24, (5Z)-5-[1-(4-chlorophenyl)propylidene]-2-(1′H,3H-spiro[2-benzofuran-1,4′-piperidin]-1′-yl)-1,3-thiazol-4(5H)-one]",9.1
9,"O=C1N=C(N2CCC3(CC2)OCc2ccccc23)SC1=C1CCCC1 [Example 53, 5-cyclopentylidene-2-(1′H,3H-spiro[2-benzofuran-1,4′-piperidin]-1′-yl)-1,3-thiazol-4(5H)-one]",8.3
10,"CC(C)(C)[Si](C)(C)OC/C(=C1/SC(N2CCC3(CC2)OCc2ccccc23)=NC1=O)c1ccc(Cl)nc1 [Example 129, (5E)-5-[2-{[tert-butyl(dimethyl)silyl]oxy}-1-(6-chloropyridin-3-yl)ethylidene]-2-(1′H,3H-spiro[2-benzofuran-1,4′-piperidin]-1′-yl)-1,3-thiazol-4(5H)-one]",8.2
11,"CC/C(=C1\SC(N2CCC3(CC2)OC(=O)c2ccccc23)=NC1=O)c1ccc(Cl)nc1 [Example 149, 1′-{(5E)-5-[1-(6-chloropyridin-3-yl)propylidene]-4-oxo-4,5-dihydro-1,3-thiazol-2-yl}-3H-spiro[2-benzofuran-1,4′-piperidin]-3-one]",8.2
12,"C/C(CNC(=O)OC(C)(C)C)=C1\SC(N2CCC3(CC2)OCc2ccccc23)=NC1=O [Example 65, tert-butyl {(2E)-2-[4-oxo-2-(1′H,3H-spiro[2-benzofuran-1,4′-piperidin]-1′-yl)-1,3-thiazol-5(4H)-ylidene]propyl}carbamate]",7.7
13,"C/C(=C1/SC(N2CCC3(CC2)OCc2ccccc23)=NC1=O)c1oc(C)nc1C [Example 86, (5E/Z)-5-[1-(2,4-dimethyl-1,3-oxazol-5-yl)ethylidene]-2-(1′H,3H-spiro[2-benzofuran-1,4′-piperidin]-1′-yl)-1,3-thiazol-4(5H)-one]",8.9
14,"C/C(=C1/SC(N2CCC3(CC2)OCc2ccccc23)=NC1=O)c1ccccc1Cl [Example 14, (5E/Z)-5-[1-(2-chlorophenyl)ethylidene]-2-(1′H,3H-spiro[2-benzofuran-1,4′-piperidin]-1′-yl)-1,3-thiazol-4(5H)-one]",8.5
15,"CC/C(=C1/SC(N2CCC3(CC2)OCc2ccccc23)=NC1=O)c1ccc(Cl)cc1 [Example 13, (5E/Z)-5-[1-(4-chlorophenyl)propylidene]-2-(1′H,3H-spiro[2-benzofuran-1,4′-piperidin]-1′-yl)-1,3-thiazol-4(5H)-one]",8.0
16,"O=C1N=C(N2CCC3(CC2)OCc2ccccc23)S/C1=C1/CC2C3CC4C2C4C13 (stereo not drawn) [Example 55, (5E/Z)-5-[hexahydro-1,2,4-(methanetriyl)pentalen-5(1H)-ylidene]-2-(1′H,3H-spiro[2-benzofuran-1,4′-piperidin]-1′-yl)-1,3-thiazol-4(5H)-one]",8.3
17,"C/C(=C1/SC(N2CCC3(CC2)OCc2ccccc23)=NC1=O)c1ccncc1 [Example 33, (5Z)-5-[1-(pyridin-4-yl)ethylidene]-2-(1′H,3H-spiro[2-benzofuran-1,4′-piperidin]-1′-yl)-1,3-thiazol-4(5H)-one]",8.3

row,SMILES,pKi hV1a
1,"C/C(=C1/SC(N2CCC3(CC2)OCc2ccccc23)=NC1=O)c1ccccn1 [Example 38, (5Z)-5-[1-(pyridin-2-yl)ethylidene]-2-(1′H,3H-spiro[2-benzofuran-1,4′-piperidin]-1′-yl)-1,3-thiazol-4(5H)-one]",8.8
2,"CC/C(=C1/SC(N2CCC3(CC2)OC(=O)c2ccccc23)=NC1=O)c1ccc(Cl)nc1 [Example 150, 1′-{(5Z)-5-[1-(6-chloropyridin-3-yl)propylidene]-4-oxo-4,5-dihydro-1,3-thiazol-2-yl}-3H-spiro[2-benzofuran-1,4′-piperidin]-3-one]",9.0
3,"C/C(=C1/SC(N2CCC3(CC2)OCc2ccccc23)=NC1=O)c1ccncc1F [Example 158, (5Z)-5-[1-(3-fluoropyridin-4-yl)ethylidene]-2-(1′H,3H-spiro[2-benzofuran-1,4′-piperidin]-1′-yl)-1,3-thiazol-4(5H)-one]",8.4
4,"C/C(=C1/SC(N2CCC3(CC2)OCc2ccccc23)=NC1=O)c1ccc(Cl)cc1 [Example 1, (5E/Z)-5-[1-(4-chlorophenyl)ethylidene]-2-(1′H,3H-spiro[2-benzofuran-1,4′-piperidin]-1′-yl)-1,3-thiazol-4(5H)-one]",8.9
5,"C/C(=C1/SC(N2CCC3(CC2)OCc2ccccc23)=NC1=O)c1ccco1 [Example 35, (5Z)-5-[1-(furan-2-yl)ethylidene]-2-(1′H,3H-spiro[2-benzofuran-1,4′-piperidin]-1′-yl)-1,3-thiazol-4(5H)-one]",8.9
6,"O=C1N=C(N2CCC3(CC2)OCc2ccccc23)S/C1=C1/C(=O)Nc2ccccc21 [Example 74, (3E/Z)-3-[4-oxo-2-(1′H,3H-spiro[2-benzofuran-1,4′-piperidin]-1′-yl)-1,3-thiazol-5(4H)-ylidene]-1,3-dihydro-2H-indol-2-one]",7.5
7,"C/C(=C1/SC(N2[C@@H]3CC[C@H]2C[C@@]2(C3)OC(=O)c3ccccc32)=NC1=O)c1ccc(Cl)cc1 [Example 5, 8-{(5E/Z)-5-[1-(4-chlorophenyl)ethylidene]-4-oxo-4,5-dihydro-1,3-thiazol-2-yl}-3′H-spiro[8-azabicyclo[3.2.1]octane-3,1′-[2]benzofuran]-3′-one]",8.9
8,"CC/C(=C1\SC(N2CCC3(CC2)OCc2ccccc23)=NC1=O)c1ccncc1 [Example 32, (5E)-5-[1-(pyridin-4-yl)propylidene]-2-(1′H,3H-spiro[2-benzofuran-1,4′-piperidin]-1′-yl)-1,3-thiazol-4(5H)-one]",7.9
9,"CC(C)C(=C1SC(N2CCC3(CC2)OCc2ccccc23)=NC1=O)C(C)C [Example 120, 5-(2,4-dimethylpentan-3-ylidene)-2-(1′H,3H-spiro[2-benzofuran-1,4′-piperidin]-1′-yl)-1,3-thiazol-4(5H)-one]",8.8
10,"Cc1cc(/C=C2\SC(N3CCC4(CC3)OCc3ccccc34)=NC2=O)no1 [Example 91, 5-[(5-methyl-1,2-oxazol-3-yl)methylidene]-2-(1′H,3H-spiro[2-benzofuran-1,4′-piperidin]-1′-yl)-1,3-thiazol-4(5H)-one]",7.5
11,"C=C/C(C)=C1\SC(N2CCC3(CC2)OCc2ccccc23)=NC1=O [Example 70, (5E/Z)-5-(but-3-en-2-ylidene)-2-(1′H,3H-spiro[2-benzofuran-1,4′-piperidin]-1′-yl)-1,3-thiazol-4(5H)-one]",7.6
12,"O=C1N=C(N2CCC3(CC2)OC(=O)c2ccccc23)S/C1=C(\CO)c1ccccc1 [Example 142, 1′-[(5Z)-5-(2-hydroxy-1-phenylethylidene)-4-oxo-4,5-dihydro-1,3-thiazol-2-yl]-3H-spiro[2-benzofuran-1,4′-piperidin]-3-one]",8.4
13,"C/C(=C1/SC(N2CCC3(CC2)OCc2ncccc23)=NC1=O)c1ccc(C)nc1 [Example 166, (5E/Z)-5-[1-(6-methylpyridin-3-yl)ethylidene]-2-(1′H,7H-spiro[furo[3,4-b]pyridine-5,4′-piperidin]-1′-yl)-1,3-thiazol-4(5H)-one]",7.1
14,"C/C(=C1\SC(N2CCC3(CC2)OCc2ccccc23)=NC1=O)C1CCCCC1 [Example 28, (5E)-5-(1-cyclohexylethylidene)-2-(1′H,3H-spiro[2-benzofuran-1,4′-piperidin]-1′-yl)-1,3-thiazol-4(5H)-one]",7.9
15,"[2H]C([2H])([2H])/C(=C1/SC(N2CCC3(CC2)OCc2ccccc23)=NC1=O)c1ccc(Cl)nc1 [Example 171, (5Z)-5-[1-(6-chloropyridin-3-yl)(^2H3)ethylidene]-2-(1′H,3H-spiro[2-benzofuran-1,4′-piperidin]-1′-yl)-1,3-thiazol-4(5H)-one]",9.3
16,"C/C(=C1/SC(N2CCC3(CC2)OCc2ccccc23)=NC1=O)c1ccc(Cl)nc1 [Example 49, (5E/Z)-5-[1-(6-chloropyridin-3-yl)ethylidene]-2-(1′H,3H-spiro[2-benzofuran-1,4′-piperidin]-1′-yl)-1,3-thiazol-4(5H)-one]",9.1
